Assay [1] concerns the target T1, Canine cardiac sarcolemmal vesicle Na+/Ca2+ exchanger (Canis lupus familiaris, UniProt P23685).
T1 construct: Canine cardiac sarcolemmal vesicles (0.5 mg/ml) were prepared by centrifugal fractionation; from tissue; host or cells: canine cardiac sarcolemmal vesicles
The assay is described as follows: Canine cardiac sarcolemmal vesicle Na+/Ca2+ exchanger (Na-dependent 45Ca uptake). Type of assay: biochemical. Particulars: canine cardiac sarcolemmal vesicles; read-out: Inhibitory activity against Na+/Ca2+ exchange (Na-dependent 45Ca uptake), IC50 value, Cardiac sarcolemma. The procedure: Method of Measuring for Canine Cardiac Sarcolemmal Vesicle Na^+/Ca^2+ Exchanger
Canine cardiac sarcolemmal vesicles (0.5 mg/ml) were prepared by centrifugal fractionation as described in Methods enzymology, vol. 157, p. 85 (1988) and suspended in Solution A (20 mM MOPS-Tris (pH 7.4), 160 mM NaCl or KCl), followed by incubation at room temperature for about one hour to cause Na or K loading into the vesicles. This suspension was diluted 50-fold with 20 μM ^45CaCl2-containing buffer to induce ^45Ca uptake, followed by dilution with the buffer (0° C.) to stop the reaction. The membrane vesicles were immediately collected on a nitrocellulose filter. Subsequently, ^45Ca trapped inside the membrane vesicles was determined by liquid scintillation counting. The Na^+/Ca^2+ exchange activity was evaluated by subtracting the value obtained for K loading from the value obtained for Na loading. The above assay for Na^+/Ca^2+ exchange activity in canine cardiac sarcolemmal vesicles was performed according to the procedures described in J. Biol. Chem., vol. 257, p. 5111 (1982).

Assay [2] deals with Brain microsomal Na+/Ca2+ exchanger. Briefly: Brain microsomal Na+/Ca2+ exchanger (Na-dependent 45Ca uptake). Type of assay: biochemical. Particulars: rat brain microsomes; read-out: Inhibitory activity against Na+/Ca2+ exchange (Na-dependent 45Ca uptake), IC50 value, Brain. On the procedure:
Method of Measuring for Brain Microsomal Na^+/Ca^2+ Exchanger
Brain microsomes (1.5 mg/ml) obtained from 8-week-old rats were pre-treated with 160 mM NaCl-containing buffer to cause Na loading into membrane vesicles. This suspension was diluted 50-fold with 20 μM ^45CaCl2-containing buffer to induce ^45Ca uptake, followed by dilution with the buffer (0° C.) to stop the reaction. The membrane vesicles were immediately collected on a nitrocellulose filter. Subsequently, ^45Ca trapped inside the membrane vesicles was determined by liquid scintillation counting. The above assay for Na^+/Ca^2+ exchange activity in brain microsomes was performed according to the procedures described in J. Biol. Chem., vol. 257, p. 5111 (1982).

Assay [3] addresses renal cortex-derived Na+/Ca2+ exchanger (NCX1) (Rattus norvegicus, UniProt Q01728). The assay is described as follows: Rat renal cortex-derived BLMVs Na+/Ca2+ exchange activity (Na-dependent 45Ca uptake). Type of assay: biochemical. Particulars: read-out: Inhibitory activity against Na+/Ca2+ exchange (Na-dependent 45Ca uptake), IC50 value, Renal cortex. On the procedure: BLMVs were prepared from rat renal cortex and assayed for Na^+/Ca^2+ exchange activity according to the procedures described in Am. J. Physiol., vol. 266, p. F785 (1994). After being excised from rats, the kidneys were placed in ice-cold sucrose buffer ([…], 0.1 mM PMSF, 10 mM Tris-HCl (pH 7.6)) and decapsulated. The isolated cortex was then finely minced in the sucrose buffer and homogenized sequentially with a Dounce-type homogenizer and a Polytron-type homogenizer, followed by centrifugation at 2500 g for 15 minutes to collect the supernatant. Centrifugation was repeated at 24000 g for 20 minutes to collect the white fluffy portion of the pellet. After further addition of the sucrose buffer, the collected fraction was homogenized with a Dounce-type homogenizer, supplemented with Percoll and then centrifuged at 30000 g for 35 minutes to collect the middle layer. After addition of buffer (100 mM KCl, 100 mM mannitol, 5 mM HEPES-Tris (pH 7.4)), centrifugation was carried out at 34000 g for 30 minutes to collect the loose white pellet (BLMVs). […] Subsequently, the filter was washed twice with 2 ml stop solution and then the amount of ^45Ca trapped inside the BLMVs was determined by using liquid scintillation method.

Assay [4] has as its system Dahl salt-sensitive hypertension rats. Briefly: Dahl salt-sensitive hypertension rat model, systolic blood pressure. Format: in vivo. Particulars: for % change in blood pressure: one hour after administration, systolic. From the text:
(Creation of Dahl Salt-sensitive Hypertension Rat Model)
Dahl salt-sensitive hypertension rats (7 weeks old) were used in the experiment. They were fed a 4% NaCl high-salt chow (0.6% for normal chow), but were allowed to drink water without any restriction. At two weeks after high-salt loading, the animals confirmed to develop hypertension were divided into the following 4 groups for use in the experiment.
(Experimental Animal Groups)
After loading the high-salt chow for two weeks as described above, an acute experiment was performed. On the day of the experiment, the systolic blood pressure (before administration) was measured for each animal under non-anesthesia conditions using a noninvasive sphygmomanometer. The animals were then administered orally with the solvent or SEA0400(3, 10, or 30 mg/kg) and monitored over time for their systolic blood pressure.

`N=C(N)SCCc1ccc(OCc2ccc([N+](=O)[O-])cc2)cc1` [K-BR7943, 2-[2-[4-[nitrobenzyloxy]phenyl]ethyl]isothio-ureamethanesulfonate]: the IC50 was 7 µM in assay [1], 11 µM in assay [2] and 6.8 µM in assay [3].
On to `CCOc1ccc(Oc2ccc(OCc3cc(F)ccc3F)cc2)c(N)c1` [SEA0400, 2-[4-[(2,5-difluorophenyl)methoxy]phenoxy]-5-ethoxyaniline], for which the entries for the “% change in blood pressure” value in assay [4] (3 mg/kg oral), in assay [4] (10 mg/kg oral) and in assay [4] (30 mg/kg oral) were −9.5±1.8%, −12.0±0.9% and −12.7±3.4%, respectively. Besides, the “Reduction in blood pressure compared with the solvent group” value in assay [4] (10 mg/kg and 30 mg/kg groups, oral) is reported as “significant reduction in blood pressure”. The IC50 in assay [2] came out at 0.2 µM.

(Values after US7183322B2, “Remedy for hypertension” (Taisho Pharmaceutical Co., Ltd., priority 2002, dated 2007).)
